This assay has as its target T1, KRAS G12C 1-169, his-tagged protein, GDP-loaded (Homo sapiens, UniProt P01116, G12C).
T1 construct: KRAS G12C 1-169, his-tagged protein, GDP-loaded
The assay can be described thus: Biochemical assay: covalent modification of KRAS G12C measured by mass spectrometry (RapidFire/TOF or Q-Exactive). It counts as binding. Particulars: covalent binding to (modification of) KRAS G12C after a ten minute incubation period. In a few lines:
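Intact-mass readout (TOF or Q-Exactive, charge-envelope deconvolution) gives percent covalent adduct from modified and unmodified species. Compound at 10, 30 or 100 μM was incubated at room temperature for 10 min to 24 h with 2 μM or 0.5 μM GDP-bound KRAS G12C 1-169 in Hepes/NaCl/MgCl2 buffer, then acid-quenched.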

With `C=CC(=O)N1CCN(c2nc(N3CC(N(C)C)C3)nc3c(F)c(-c4c(C)ccc5cnn(C)c45)c(Cl)cc23)C[C@H]1C` (atropisomer, axis not shown) [Compound 143, 1-((R)-4-((S)-6-chloro-7-(1,6-dimethyl-1H-indazol-7-yl)-2-(3-(dimethylamino)azetidin-1-yl)-8-fluoroquinazolin-4-yl)-2-methylpiperazin-1-yl)prop-2-en-1-one], the Binding % result is “+ (+ indicates binding activity greater than 0% and up to 50%)”. For `C=CC(=O)N1CCN(c2nc(N3CC(N(C)C)C3)nc3c(F)c(-c4c(C)ccc5cnn(C)c45)c(Cl)cc23)C[C@H]1C` (atropisomer, axis not shown) [Compound 144, 1-((R)-4-((R)-6-chloro-7-(1,6-dimethyl-1H-indazol-7-yl)-2-(3-(dimethylamino)azetidin-1-yl)-8-fluoroquinazolin-4-yl)-2-methylpiperazin-1-yl)prop-2-en-1-one], the Binding % result was “+++ (+++ indicates binding activity greater than 80%)”. Next, `C=CC(=O)N1C[C@H](C)N(c2nc(OCCN3CC(F)(F)C3)nc3c(F)c(-c4c(C)ccc5cnn(C)c45)c(Cl)cc23)C[C@H]1C` (atropisomer, axis not shown) [Compound 146, 1-((2R,5S)-4-((S)-6-chloro-2-(2-(3,3-difluoroazetidin-1-yl)ethoxy)-7-(1,6-dimethyl-1H-indazol-7-yl)-8-fluoroquinazolin-4-yl)-2,5-dimethylpiperazin-1-yl)prop-2-en-1-one]: “+ (+ indicates binding activity greater than 0% and up to 50%)”; `C=CC(=O)N1C[C@H](C)N(c2nc(OCCN3CC(F)(F)C3)nc3c(F)c(-c4c(C)ccc5cnn(C)c45)c(Cl)cc23)C[C@H]1C` (atropisomer, axis not shown) [Compound 147, 1-((2R,5S)-4-((R)-6-chloro-2-(2-(3,3-difluoroazetidin-1-yl)ethoxy)-7-(1,6-dimethyl-1H-indazol-7-yl)-8-fluoroquinazolin-4-yl)-2,5-dimethylpiperazin-1-yl)prop-2-en-1-one]: “+++ (+++ indicates binding activity greater than 80%)”; `C=CC(=O)N1C[C@H](C)N(c2nc(N3CC(N(C)C)C3)nc3c(F)c(-c4c(C)ccc5cnn(C6CC6)c45)c(Cl)cc23)C[C@H]1C` (atropisomer, axis not shown) [Compound 149, 1-((2R,5S)-4-((S)-6-chloro-7-(1-cyclopropyl-6-methyl-1H-indazol-7-yl)-2-(3-(dimethylamino)azetidin-1-yl)-8-fluoroquinazolin-4-yl)-2,5-dimethylpiperazin-1-yl)prop-2-en-1-one]: “+ (+ indicates binding activity greater than 0% and up to 50%)”. Regarding `C=CC(=O)N1C[C@H](C)N(c2nc(N3CC(N(C)C)C3)nc3c(F)c(-c4c(C)ccc5cnn(C6CC6)c45)c(Cl)cc23)C[C@H]1C` (atropisomer, axis not shown) [Compound 150, 1-((2R,5S)-4-((R)-6-chloro-7-(1-cyclopropyl-6-methyl-1H-indazol-7-yl)-2-(3-(dimethylamino)azetidin-1-yl)-8-fluoroquinazolin-4-yl)-2,5-dimethylpiperazin-1-yl)prop-2-en-1-one], the Binding % result is reported as “+++ (+++ indicates binding activity greater than 80%)”.

As to `C=CC(=O)N1[C@H](C)CN(c2nc(N3CC(N(C)C)C3)nc3c(F)c(-c4c(C)ccc5[nH]nc(C)c45)c(Cl)cc23)C[C@@H]1C` (atropisomer, axis not shown) [Compound 151, 1-((2S,6R)-4-((S)-6-chloro-7-(3,5-dimethyl-1H-indazol-4-yl)-2-(3-(dimethylamino)azetidin-1-yl)-8-fluoroquinazolin-4-yl)-2,6-dimethylpiperazin-1-yl)prop-2-en-1-one], the Binding % result was “+ (+ indicates binding activity greater than 0% and up to 50%)”.

Consider `C=CC(=O)N1[C@H](C)CN(c2nc(N3CC(N(C)C)C3)nc3c(F)c(-c4c(C)ccc5[nH]nc(C)c45)c(Cl)cc23)C[C@@H]1C` (atropisomer, axis not shown) [Compound 152, 1-((2S,6R)-4-((R)-6-chloro-7-(3,5-dimethyl-1H-indazol-4-yl)-2-2(3-(dimethylamino)azetidin-1-yl)-8-fluoroquinazolin-4-yl)-2,6-dimethylpiperazin-1-yl)prop-2-en-1-one], for which the Binding % result is “+++ (+++ indicates binding activity greater than 80%)”. Next, `C=CC(=O)N1C[C@H](C)N(c2nc(OCCCN(C)C)nc3c(F)c(-c4c(C)ccc5cnn(C)c45)c(Cl)cc23)C[C@H]1C` (atropisomer, axis not shown) [Compound 153, 1-((2R,5S)-4-((S)-6-chloro-7-(1,6-dimethyl-1H-indazol-7-yl)-2-(3-(dimethylamino)pro-poxy)-8-fluoroquinazolin-4-yl)-2,5-dimethylpiperazin-1-yl)prop-2-en-1-one]: “+ (+ indicates binding activity greater than 0% and up to 50%)”; `C=CC(=O)N1C[C@H](C)N(c2nc(OCCCN(C)C)nc3c(F)c(-c4c(C)ccc5cnn(C)c45)c(Cl)cc23)C[C@H]1C` (atropisomer, axis not shown) [Compound 154, 1-((2R,5S)-4-((R)-6-chloro-7-(1,6-dimethyl-1H-indazol-7-yl)-2-(3-(dimethylamino)pro-poxy)-8-fluoroquinazolin-4-yl)-2,5-dimethylpiperazin-1-yl)prop-2-en-1-one]: “+++ (+++ indicates binding activity greater than 80%)”. For `C=CC(=O)N1C[C@H](C)N(c2nc(N3CC(N(C)C)C3)nc3c(F)c(-c4c(F)ccc5cnn(C)c45)c(Cl)cc23)C[C@H]1C` (atropisomer, axis not shown) [Compound 155, 1-((2R,5S)-4-((R)-6-chloro-2-(3-(dimethylamino)azetidin-1-yl)-8-fluoro-7-(6-fluoro-1-methyl-1H-indazol-7-yl)quinazolin-4-yl)-2,5-dimethylpiperazin-1-yl)prop-2-en-1-one] the value was “+ (+ indicates binding activity greater than 0% and up to 50%)”; for `C=CC(=O)N1C[C@H](C)N(c2nc(N3CC(N(C)C)C3)nc3c(F)c(-c4c(F)ccc5cnn(C)c45)c(Cl)cc23)C[C@H]1C` (atropisomer, axis not shown) [Compound 156, 1-((2R,5S)-4-((S)-6-chloro-2-(3-(dimethylamino)azetidin-1-yl)-8-fluoro-7-(6-fluoro-1-methyl-1H-indazol-7-yl)quinazolin-4-yl)-2,5-dimethylpiperazin-1-yl)prop-2-en-1-one], “+++ (+++ indicates binding activity greater than 80%)”; for `C=CC(=O)N1C[C@H](C)N(c2nc(OC3CCN(C(C)C)CC3)nc3c(F)c(-c4c(C)ccc5cnn(C)c45)c(Cl)cc23)C[C@H]1C` (atropisomer, axis not shown) [Compound 166, 1-((2R,5S)-4-((S)-6-chloro-7-(1,6-dimethyl-1H-indazol-7-yl)-8-fluoro-2-(1-isopropylpiperidin-4-yloxy)quinazolin-4-yl)-2,5-dimethylpiperazin-1-yl)prop-2-en-1-one], “+ (+ indicates binding activity greater than 0% and up to 50%)”.

As to `C=CC(=O)N1C[C@H](C)N(c2nc(OC3CCN(C(C)C)CC3)nc3c(F)c(-c4c(C)ccc5cnn(C)c45)c(Cl)cc23)C[C@H]1C` (atropisomer, axis not shown) [Compound 167, 1-((2R,5S)-4-((R)-6-chloro-7-(1,6-dimethyl-1H-indazol-7-yl)-8-fluoro-2-(1-isopropylpiperidin-4-yloxy)quinazolin-4-yl)-2,5-dimethylpiperazin-1-yl)prop-2-en-1-one], the Binding % result is “+++ (+++ indicates binding activity greater than 80%)”. Next, `C=CC(=O)N1C[C@H](C)N(c2nc(OCCN3CCN(C)CC3)nc3c(F)c(-c4c(C)ccc5cnn(C)c45)c(Cl)cc23)C[C@H]1C` (atropisomer, axis not shown) [Compound 168, 1-((2R,5S)-4-((S)-6-chloro-7-(1,6-dimethyl-1H-indazol-7-yl)-8-fluoro-2-(2-(4-methylpiperazin-1-yl)ethoxy)quinazolin-4-yl)-2,5-dimethylpiperazin-1-yl)prop-2-en-1-one]: “+ (+ indicates binding activity greater than 0% and up to 50%)”; `C=CC(=O)N1C[C@H](C)N(c2nc(OCCN3CCN(C)CC3)nc3c(F)c(-c4c(C)ccc5cnn(C)c45)c(Cl)cc23)C[C@H]1C` (atropisomer, axis not shown) [Compound 169, 1-((2R,5S)-4-((R)-6-chloro-7-(1,6-dimethyl-1H-indazol-7-yl)-8-fluoro-2-(2-(4-methylpiperazin-1-yl)ethoxy)quinazolin-4-yl)-2,5-dimethylpiperazin-1-yl)prop-2-en-1-one]: “+++ (+++ indicates binding activity greater than 80%)”; `C=CC(=O)N1C[C@H](C)N(c2nc(N3CC(NC)C3)nc3c(F)c(-c4c(C)ccc5cnn(C)c45)c(Cl)cc23)C[C@H]1C` (atropisomer, axis not shown) [Compound 170, 1-((2R,5S)-4-((R)-6-chloro-7-(1,6-dimethyl-1H-indazol-7-yl)-8-fluoro-2-(3-(methylamino)azetidin-1-yl)quinazolin-4-yl)-2,5-dimethylpiperazin-1-yl)prop-2-en-1-one]: “+++ (+++ indicates binding activity greater than 80%)”. Next, `C=CC(=O)N1C[C@H](C)N(c2nc(N3CC(N(C)C)C3)nc3c(F)c(-c4c(F)ccc5cnn(C6CC6)c45)c(Cl)cc23)C[C@H]1C` (atropisomer, axis not shown) [Compound 201, 1-((2R,5S)-4-((S)-6-chloro-7-(1-cyclopropyl-6-fluoro-1H-indazol-7-yl)-2-(3-(dimethylamino)azetidin-1-yl)-8-fluoroquinazolin-4-yl)-2,5-dimethylpiperazin-1-yl)prop-2-en-1-one]: “+++ (+++ indicates binding activity greater than 80%)”.
